In one assay the target is Cdc7/Dbf4 (Homo sapiens (Human), UniProt O00311). Briefly: Cdc7 Inhibition Assay.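 Note: reaction mixtures incubated 30 min on streptavidin-coated plates, then quantified by scintillation counting, with inhibition curves fitted by non-linear regression.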 The class given is biochemical. Conditions: 11 data point; read-out: Ki (μM) 11 data point.
The next assay deals with HCT-116 cells. Description: AlamarBlue Cell Viability Assays. The class given is cell-based. As to conditions: Homo sapiens, treated 72 hours. As to the method:
AlamarBlue Cell Viability Assays
HCT-116 cells (3,000/well; 96-well format) were treated for 72 hours with increasing concentrations of compounds (0.01-30 μM in half-log increments). The cells were then incubated in fresh media with 10% AlamarBlue reagent (Invitrogen #DAL1100). AlamarBlue reactions were incubated according to the manufacturer's instructions (approximately 4 hours) and then analyzed using an fmax fluorescence microplate reader (Molecular Devices) using excitation/emission wavelengths of 544/595 nm. Data were analyzed using SOFTmax PRO software provided by the manufacturer.

Assay [1] deals with phospho-MCM2 Ser53 in HCT-116 cells. Description: Phospho-MCM2 ELISA. Type of assay: cell-based. As to conditions: Homo sapiens, treated 6 hours. As to the method: HCT-116 cells (20,000/well; 96-well format) were treated for 6 hours with increasing concentrations of compounds (0.01-10 μM in half-log increments). After removing the medium/inhibitor, the cells were frozen for 5 minutes and treated on ice with 20 μL of lysis buffer (Invitrogen #FNN0011) for 30 minutes. 80 μL of cold 2% BSA (in PBS) were then added to each well before transferring 80 μL to MCM2 antibody-coated plates (Bethyl #A300-122A, lot A300-122A-1). The plates were incubated overnight at 4° C., washed, and then incubated with the sandwich antibody (1:100 rabbit anti-human phospho-MCM2 Ser53; Bethyl #A300-756A, lot A300-756A-2) for 2 hours at room temperature. After another series of washes the samples are incubated for 1 hour with detection antibody (XSA-grade goat anti-rabbit-HRP, KPL #074-15-061, lot 50884, diluted to 2 μg/mL in 2% BSA). Plates were washed, developed using luminescence substrate (SuperSignal Pico for ELISA, Pierce #37069, Lot. HB101408), and read on a Molecular Devices M5 luminometer.
Background: In an ELISA, binding on a coated surface is turned into a signal by an enzyme label.

Chain of Cdc7/Dbf4 (O00311 whole entry): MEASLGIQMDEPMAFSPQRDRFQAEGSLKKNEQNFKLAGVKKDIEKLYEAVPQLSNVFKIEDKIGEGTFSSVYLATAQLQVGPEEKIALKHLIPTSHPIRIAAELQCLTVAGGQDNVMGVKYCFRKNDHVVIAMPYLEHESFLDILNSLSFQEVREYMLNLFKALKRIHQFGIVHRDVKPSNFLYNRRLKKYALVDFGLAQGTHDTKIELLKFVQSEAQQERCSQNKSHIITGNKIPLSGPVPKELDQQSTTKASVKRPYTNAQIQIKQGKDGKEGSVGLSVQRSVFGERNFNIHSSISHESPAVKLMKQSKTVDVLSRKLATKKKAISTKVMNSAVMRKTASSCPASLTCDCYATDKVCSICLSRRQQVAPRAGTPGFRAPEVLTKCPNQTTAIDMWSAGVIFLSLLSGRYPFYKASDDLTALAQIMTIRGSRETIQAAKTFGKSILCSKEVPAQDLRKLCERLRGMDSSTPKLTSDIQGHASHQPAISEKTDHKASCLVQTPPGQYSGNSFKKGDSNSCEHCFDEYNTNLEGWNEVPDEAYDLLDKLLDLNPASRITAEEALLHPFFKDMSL
Chain of Cdc7/Dbf4 (Q9UBU7 whole entry partner): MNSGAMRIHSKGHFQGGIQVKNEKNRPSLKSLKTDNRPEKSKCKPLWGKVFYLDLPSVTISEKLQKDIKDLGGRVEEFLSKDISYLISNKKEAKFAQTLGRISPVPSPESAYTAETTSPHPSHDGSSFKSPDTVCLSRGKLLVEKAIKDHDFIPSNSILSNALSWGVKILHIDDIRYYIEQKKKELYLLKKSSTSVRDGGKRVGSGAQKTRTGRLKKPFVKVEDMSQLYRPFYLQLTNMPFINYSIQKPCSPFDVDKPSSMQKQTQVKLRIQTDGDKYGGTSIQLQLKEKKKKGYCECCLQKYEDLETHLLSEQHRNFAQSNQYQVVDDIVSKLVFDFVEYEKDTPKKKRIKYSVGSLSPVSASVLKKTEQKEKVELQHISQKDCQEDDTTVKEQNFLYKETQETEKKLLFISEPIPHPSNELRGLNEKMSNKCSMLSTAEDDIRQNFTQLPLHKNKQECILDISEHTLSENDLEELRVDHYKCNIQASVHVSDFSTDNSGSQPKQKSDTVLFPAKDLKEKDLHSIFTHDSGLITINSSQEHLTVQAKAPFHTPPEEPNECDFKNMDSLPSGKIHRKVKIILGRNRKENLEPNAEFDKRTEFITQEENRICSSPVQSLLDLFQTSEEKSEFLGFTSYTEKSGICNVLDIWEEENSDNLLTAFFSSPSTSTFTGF
Procedure for Cdc7/Dbf4: The reactions were incubated for 30 minutes on streptavidin-coated plates, washed, and quantified using a TopCount scintillation plate reader (Packard). IC50 values are determined via non-linear regression fitting of the data.

Broadly, the Ki is the dissociation constant of the complex between target and ligand, obtained from inhibition or displacement. Usually EC50 stands for the concentration that produces a half-maximal response. Read a low EC50 as greater potency. For the molecule `Clc1ccc(Cn2cc(-c3ccc4[nH]ncc4c3)nn2)c(Cl)c1` [Example 32, 5-[1-(2,4-dichlorobenzyl)-1H-1,2,3-triazol-4-yl]-1H-indazole], on Cdc7/Dbf4, the Ki is 0.0127 µM. In the assay on HCT-116 cells, this molecule showed a concentration giving a half-maximal response (EC50) of more than 30000 nM.

For the molecule `Nc1n[nH]c2ccc(-c3cn(Cc4ccccc4)nn3)cc12` [Example 62, 5-(1-benzyl-1H-1,2,3-triazol-4-yl)-1H-indazol-3-amine], the results for the EC50 (in assay [1]; in the assay with HCT-116 cells) were more than 10000 nM and 4540 nM, respectively.

For the molecule `O=C(Nc1n[nH]c2ccc(-c3cn(Cc4ccccc4)nn3)cc12)c1ccccc1` [Example 73, N-[5-(1-benzyl-1H-1,2,3-triazol-4-yl)-1H-indazol-3-yl]benzamide], the results for the concentration for a half-maximal effect (EC50) (in assay [1]; in the assay on HCT-116 cells) were 1970 nM and 760 nM, respectively.

With `Nc1n[nH]c2ccc(-c3nnn(Cc4ccccc4)c3-c3ccccc3)cc12` [Example 102, 5-(1-benzyl-5-phenyl-1H-1,2,3-triazol-4-yl)-1H-indazol-3-amine], the concentration giving a half-maximal response (EC50) in assay [1] stood at 3130 nM; with HCT-116 cells it was 3190 nM.

`Cc1c(-c2ccc3[nH]nc(N)c3c2)nnn1Cc1ccccc1` [Example 123, 5-(1-benzyl-5-methyl-1H-1,2,3-triazol-4-yl)-1H-indazol-3-amine]: the 50% effective concentration (EC50) in assay [1] is more than 10000 nM; with HCT-116 cells, 3860 nM.

For `Nc1n[nH]c2ccc(-c3nnn(Cc4ccccc4)c3-c3ccc(F)cc3)cc12` [Example 151, 5-[1-benzyl-5-(4-fluorophenyl)-1H-1,2,3-triazol-4-yl]-1H-indazol-3-amine], the EC50 in assay [1] was found to be 3760 nM; in the assay on HCT-116 cells, 8640 nM.

On to `Cc1ccccc1-c1c(-c2ccc3[nH]nc(N)c3c2)nnn1Cc1ccccc1` [Example 163, 5-[1-benzyl-5-(2-methylphenyl)-1H-1,2,3-triazol-4-yl]-1H-indazol-3-amine], for which the figures for the half-maximal effective concentration (EC50) (in assay [1]; in the assay on HCT-116 cells) were 9430 nM and 928 nM, respectively.

For the molecule `COc1ccc(NC(=O)Nc2n[nH]c3ccc(-c4nnn(Cc5ccccc5)c4-c4ccccc4)cc23)cc1` [Example 200, N-[5-(1-benzyl-5-phenyl-1H-1,2,3-triazol-4-yl)-1H-indazol-3-yl]-N′-(4-methoxyphenyl)urea], at Cdc7/Dbf4, the inhibition constant (Ki) was 0.013 µM. Further, in the assay with HCT-116 cells, the midpoint of the response, the EC50, lay at 13500 nM.

With `CCS(=O)(=O)Nc1n[nH]c2ccc(-c3nnn(Cc4ccccc4)c3C3CC3)cc12` [Example 216, N-[5-(1-benzyl-5-cyclopropyl-1H-1,2,3-triazol-4-yl)-1H-indazol-3-yl]ethanesulfonamide], the Ki on Cdc7/Dbf4 was 0.12 µM. This molecule yielded a concentration giving a half-maximal response (EC50) with HCT-116 cells of 19100 nM.

As for `O=C(Nc1n[nH]c2ccc(-c3nnn(Cc4ccccc4)c3C3CC3)cc12)c1cccc(Cl)c1` [Example 224, N-[5-(1-benzyl-5-cyclopropyl-1H-1,2,3-triazol-4-yl)-1H-indazol-3-yl]-3-chlorobenzamide], the EC50 in assay [1] is more than 10000 nM; in the assay with HCT-116 cells, 2420 nM.

As to `CN(C)CCC(=O)Nc1n[nH]c2ccc(-c3cn(Cc4ccccc4)nn3)cc12` [Example 311, N^1-[5-(1-benzyl-1H-1,2,3-triazol-4-yl)-1H-indazol-3-yl]-N^3,N^3-dimethyl-beta-alaninamide], the Ki on Cdc7/Dbf4 was more than 1.23 µM.

`O=C1CN(CC(=O)Nc2n[nH]c3ccc(-c4cn(Cc5ccccc5)nn4)cc23)CCN1` [Example 314, N-[5-(1-benzyl-1H-1,2,3-triazol-4-yl)-1H-indazol-3-yl]-2-(3-oxopiperazin-1-yl)acetamide]: at Cdc7/Dbf4, the inhibition constant (Ki) was found to be 0.18 µM.

As for `O=C(CNC1CCCCC1)Nc1n[nH]c2ccc(-c3cn(Cc4ccccc4)nn3)cc12` [Example 316, N^1-[5-(1-benzyl-1H-1,2,3-triazol-4-yl)-1H-indazol-3-yl]-N^2-cyclohexylglycinamide], the Ki on Cdc7/Dbf4 was determined as 0.5 µM.

As for `O=C(CNC1CCC1)Nc1n[nH]c2ccc(-c3cn(Cc4ccccc4)nn3)cc12` [Example 318, N^1-[5-(1-benzyl-1H-1,2,3-triazol-4-yl)-1H-indazol-3-yl]-N^2-cyclobutylglycinamide], on Cdc7/Dbf4, the Ki was more than 1.23 µM.

With `CCS(=O)(=O)Nc1n[nH]c2ccc(-c3cn(Cc4ccccc4)nn3)cc12` [Example 320, N-[5-(1-benzyl-1H-1,2,3-triazol-4-yl)-1H-indazol-3-yl]ethanesulfonamide], the inhibitory constant (Ki) at Cdc7/Dbf4 was determined as 0.41 µM.

Consider `c1ccc(Cn2cc(-c3ccc4[nH]nc(NCC5CC5)c4c3)nn2)cc1` [Example 321, 5-(1-benzyl-1H-1,2,3-triazol-4-yl)-N-(cyclopropylmethyl)-1H-indazol-3-amine], for which the inhibitory constant (Ki) at Cdc7/Dbf4 came to 0.57 µM.

`O=C1CCCN1c1n[nH]c2ccc(-c3cn(Cc4ccccc4)nn3)cc12` [Example 323, 1-[5-(1-benzyl-1H-1,2,3-triazol-4-yl)-1H-indazol-3-yl]pyrrolidin-2-one]: the inhibition constant Ki at Cdc7/Dbf4 was 0.18 µM.

With `CN(C)C(=O)c1n[nH]c2ccc(-c3cn(Cc4ccccc4)nn3)cc12` [Example 396, 5-(1-benzyl-1H-1,2,3-triazol-4-yl)-N,N-dimethyl-1H-indazole-3-carboxamide], at Cdc7/Dbf4, the Ki came to 0.681 µM.

As to `COC(=O)c1n[nH]c2ccc(-c3cn(Cc4ccccc4)nn3)cc12` [Example 397, methyl 5-(1-benzyl-1H-1,2,3-triazol-4-yl)-1H-indazole-3-carboxylate], the Ki at Cdc7/Dbf4 came to 0.0811 µM. This molecule also came in with an EC50 in the assay on HCT-116 cells of 24800 nM.

`Cn1ccnc1-c1n[nH]c2ccc(-c3cn(Cc4ccccc4)nn3)cc12` [Example 398, 5-(1-benzyl-1H-1,2,3-triazol-4-yl)-3-(1-methyl-1H-imidazol-2-yl)-1H-indazole]: the Ki at Cdc7/Dbf4 amounted to 0.489 µM.

`c1ccc(Cn2cc(-c3ccc4[nH]nc(N5CCOCC5)c4c3)nn2)cc1` [Example 399, 5-(1-benzyl-1H-1,2,3-triazol-4-yl)-3-morpholin-4-yl-1H-indazole]: the Ki on Cdc7/Dbf4 came to 0.63 µM.

Consider `CN1CCN(c2n[nH]c3ccc(-c4cn(Cc5ccccc5)nn4)cc23)CC1` [Example 400, 5-(1-benzyl-1H-1,2,3-triazol-4-yl)-3-(4-methylpiperazin-1-yl)-1H-indazole], for which the inhibition constant (Ki) at Cdc7/Dbf4 came to 0.23 µM.

As for `Nc1n[nH]c2ccc(-c3nnn(Cc4ccccc4)c3C3CCCCC3)cc12` [Example 402, 5-(1-benzyl-5-cyclohexyl-1H-1,2,3-triazol-4-yl)-1H-indazol-3-amine], at Cdc7/Dbf4, the Ki turned out to be 0.037 µM. For the same molecule, in the assay on HCT-116 cells, the EC50 was 37 nM.

Consider `c1ccc(Cn2cc(-c3ccc4[nH]nc(-c5nccs5)c4c3)nn2)cc1` [Example 404, 5-(1-benzyl-1H-1,2,3-triazol-4-yl)-3-(1,3-thiazol-2-yl)-1H-indazole], for which the inhibition constant Ki at Cdc7/Dbf4 turned out to be 0.258 µM.

As for `c1ccc(Cn2cc(-c3ccc4[nH]nc(NCCN5CCOCC5)c4c3)nn2)cc1` [Example 407, 5-(1-benzyl-1H-1,2,3-triazol-4-yl)-N-(2-morpholin-4-ylethyl)-1H-indazol-3-amine], the Ki at Cdc7/Dbf4 is 0.22 µM.

With `CCCCNc1n[nH]c2ccc(-c3cn(Cc4ccccc4)nn3)cc12` [Example 410, 5-(1-benzyl-1H-1,2,3-triazol-4-yl)-N-butyl-1H-indazol-3-amine], on Cdc7/Dbf4, the inhibition constant Ki stood at 0.04 µM.

As to `c1ccc(CNc2n[nH]c3ccc(-c4cn(Cc5ccccc5)nn4)cc23)cc1` [Example 411, N-benzyl-5-(1-benzyl-1H-1,2,3-triazol-4-yl)-1H-indazol-3-amine], at Cdc7/Dbf4, the Ki was found to be 0.12 µM.

As to `Clc1ccc(CNc2n[nH]c3ccc(-c4cn(Cc5ccccc5)nn4)cc23)cc1` [Example 412, 5-(1-benzyl-1H-1,2,3-triazol-4-yl)-N-(4-chlorobenzyl)-1H-indazol-3-amine], on Cdc7/Dbf4, the Ki turned out to be 0.14 µM.

As to `COc1ccc(CNc2n[nH]c3ccc(-c4cn(Cc5ccccc5)nn4)cc23)cc1` [Example 413, 5-(1-benzyl-1H-1,2,3-triazol-4-yl)-N-(4-methoxybenzyl)-1H-indazol-3-amine], the Ki at Cdc7/Dbf4 was determined as 0.052 µM.

For `Fc1cccc(CNc2n[nH]c3ccc(-c4cn(Cc5ccccc5)nn4)cc23)c1` [Example 414, 5-(1-benzyl-1H-1,2,3-triazol-4-yl)-N-(3-fluorobenzyl)-1H-indazol-3-amine], the inhibition constant (Ki) on Cdc7/Dbf4 came out at 0.038 µM.

Take `N#Cc1ccc(CNc2n[nH]c3ccc(-c4cn(Cc5ccccc5)nn4)cc23)cc1` [Example 415, 4-({[5-(1-benzyl-1H-1,2,3-triazol-4-yl)-1H-indazol-3-yl]amino}methyl)benzonitrile]: the inhibition constant (Ki) at Cdc7/Dbf4 was determined as 0.065 µM.

As to `Fc1ccc(CNc2n[nH]c3ccc(-c4cn(Cc5ccccc5)nn4)cc23)c(F)c1` [Example 416, 5-(1-benzyl-1H-1,2,3-triazol-4-yl)-N-(2,4-difluorobenzyl)-1H-indazol-3-amine], the inhibition constant Ki at Cdc7/Dbf4 was 0.037 µM.

Regarding `c1ccc(Cn2cc(-c3ccc4[nH]nc(NCC5CCCCC5)c4c3)nn2)cc1` [Example 417, 5-(1-benzyl-1H-1,2,3-triazol-4-yl)-N-(cyclohexylmethyl)-1H-indazol-3-amine], at Cdc7/Dbf4, the inhibition constant Ki was found to be 0.35 µM.

As to `c1ccc(-n2cc(-c3ccc4[nH]ncc4c3)nn2)cc1` [Example 418, 5-(1-phenyl-1H-1,2,3-triazol-4-yl)-1H-indazole], on Cdc7/Dbf4, the inhibition constant (Ki) turned out to be 0.192 µM.

For the origin of these results see patent US9163007B2, “5-substituted indazoles as kinase inhibitors” (AbbVie Inc., priority 2007, dated 2015).
